Measured values: patent US20230355558A1 (priority 2022, published 2023)

System: SARS-CoV-2
Assay type: cell-based

Question: For `NCC1CCC(C(=O)[O][Ca][O]C(=O)C2CCC(CN)CC2)CC1` (stereo not shown) [Ca-TA, Calcium bis-tranexamate], which “antiviral efficacy against SARS-CoV-2 infections and its emerging variants” value is on record?
Answer: Its value is “desired antiviral efficacy”.
